The test system of this test is Plasmodium berghei. Kind of test: Luciferase/luciferin-expressing antifolate-resistant parasites were used to infect a culture of HepG2 cells that were pre-incubated with compounds. Infected hepatocytes emit light due to the luciferase reaction. Assay results are presented as the percent inhibition of light emission compared to control. […]. The format is functional. The conditions noted are these: sporozoite; for IC90: read-out: LUCIFERASE INFECTION ASSAY - IC90.

Where [1] appears, read: PBLUC_HILL_SLOPE 3.35, PBLUC_R_SQUARED 0.119, read-out: LUCIFERASE INFECTION ASSAY - IC50.

A word on the IC50: it is the concentration at which inhibition is half-maximal. In general, IC90 refers to the concentration needed for an effect of 90%. For `Cc1cc(C2N=C(N)Nc3nc4ccccc4n32)c(C)n1-c1ccccc1Cl` (configuration not stated), the IC90 turned out to be 7.59 µM. Moreover, the IC50 (PBLUC_HILL_SLOPE 3.33, 1.30, PBLUC_R_SQUARED 0.920, 0.833, read-out: LUCIFERASE INFECTION ASSAY - IC50) worked out at 3.92 µM.

Take `COc1ccc(CC(N)c2csc(NC(=O)Nc3cccc(C(F)(F)F)c3)n2)cc1` (configuration not stated): the IC90 was greater than 7.56 µM. Further, for the setting “PBLUC_HILL_SLOPE 3.34, PBLUC_R_SQUARED 0.752, read-out: LUCIFERASE INFECTION ASSAY - IC50”, the IC50 came to 5.46 µM.

On to `Cc1nn(-c2ccccc2)c(Cl)c1/C=N/Nc1nc2ccccc2[nH]1`, for which the IC90 is greater than 10 µM. Besides, the IC50 under setting [1] came to 7.2 µM.

With `CN(/N=C/c1ccc(Cl)cc1)c1ncc(Cl)cc1C(F)(F)F`, the IC90 is greater than 9.48 µM. The IC50 (PBLUC_HILL_SLOPE 3.36, PBLUC_R_SQUARED 0.0281, read-out: LUCIFERASE INFECTION ASSAY - IC50) was 7.13 µM.

With `Oc1cccc(-c2cnc3cnc(/C=C/c4ccccc4)cn23)c1`, the IC90 is greater than 10.5 µM. For the setting “PBLUC_HILL_SLOPE 3.41, PBLUC_R_SQUARED 0.351, read-out: LUCIFERASE INFECTION ASSAY - IC50”, the IC50 came to 7.1 µM.

As for `O=C(NNC(=O)c1cccn1-c1ccc(F)cc1)Nc1ccc(Cl)c(Cl)c1`, the IC90 was determined as 7.62 µM. Further, for the setting “PBLUC_HILL_SLOPE 3.35, PBLUC_R_SQUARED 0.178, read-out: LUCIFERASE INFECTION ASSAY - IC50”, the IC50 came out at 3.96 µM.

As for `CN(C)c1cccc(-c2cnc3cnc(-c4cccnc4)cn23)c1`, the IC90 is greater than 10.5 µM. The IC50 (PBLUC_HILL_SLOPE 3.32, PBLUC_R_SQUARED 0.395, read-out: LUCIFERASE INFECTION ASSAY - IC50) is 8.6 µM.

Turning to `O=C(Nc1ccc(C(=O)N(CCO)Cc2cccc(OCc3ccccc3Cl)c2)cc1)C1CC1`, the IC90 is greater than 10 µM. Further, the IC50 (PBLUC_HILL_SLOPE 3.35, PBLUC_R_SQUARED 0.615, read-out: LUCIFERASE INFECTION ASSAY - IC50) was 6.85 µM.

Consider `CCc1ccc(-c2nc(C(=O)Nn3cn[nH]c3=S)cs2)cc1`, for which the IC90 is greater than 10 µM. In addition, the IC50 (PBLUC_HILL_SLOPE 3.31, PBLUC_R_SQUARED 0.251, read-out: LUCIFERASE INFECTION ASSAY - IC50) worked out at 5.44 µM.

Regarding `Nc1c(NC2CCCCC2)cc(NCCO)c2c1C(=O)c1ccccc1C2=O`, the IC90 is greater than 8.7 µM. The IC50 (PBLUC_HILL_SLOPE 3.41, PBLUC_R_SQUARED 0.438, read-out: LUCIFERASE INFECTION ASSAY - IC50) was greater than 8.7 µM.

In the case of `Nc1ncc(-c2ccc(F)cc2F)cc1-c1cccc(C(F)(F)F)c1`, the IC90 was greater than 9.42 µM. Moreover, the half-maximal inhibitory concentration (IC50) (PBLUC_HILL_SLOPE 3.4, PBLUC_R_SQUARED 0.237, read-out: LUCIFERASE INFECTION ASSAY - IC50) came out at 7.55 µM.

With `CC(C)c1ccc(NC(=O)c2ccc(N(C)C)c([N+](=O)[O-])c2)cc1`, the IC90 is 8.31 µM. The IC50 (PBLUC_HILL_SLOPE 3.41, PBLUC_R_SQUARED 0.504, read-out: LUCIFERASE INFECTION ASSAY - IC50) was determined as 4.36 µM.

As to `Cc1onc(-c2c(Cl)cccc2Cl)c1C(=O)ONC(=N)c1c(Cl)cccc1Cl`, the IC90 is greater than 7.19 µM. Besides, the IC50 (PBLUC_HILL_SLOPE 3.4, PBLUC_R_SQUARED 0.373, read-out: LUCIFERASE INFECTION ASSAY - IC50) amounted to 5.6 µM.

Regarding `O=C(Nc1ccc[n+](Cc2ccccc2)c1)c1ccccc1-c1ccc(C(F)(F)F)cc1`, the IC90 was greater than 10 µM. The IC50 (PBLUC_HILL_SLOPE 3.37, PBLUC_R_SQUARED 0.68, read-out: LUCIFERASE INFECTION ASSAY - IC50) was determined as 5.76 µM.

With `CN1CCN(c2ccc(NC(=O)c3c[nH]c4ccc(Br)cc34)cn2)CC1`, the IC90 is greater than 10 µM. The IC50 (PBLUC_HILL_SLOPE 3.31, PBLUC_R_SQUARED 0.596, read-out: LUCIFERASE INFECTION ASSAY - IC50) worked out at 8.19 µM.

On to `CCOCCCn1c(SCC(=O)N2CCCC3CCCCC32)nc2sc(C)c(C)c2c1=O` (configuration not stated), for which the IC90 is greater than 10 µM. The IC50 (PBLUC_HILL_SLOPE 3.41, PBLUC_R_SQUARED 0.294, read-out: LUCIFERASE INFECTION ASSAY - IC50) was determined as 7.03 µM.

Regarding `Cn1cc(-c2cn3c(-c4ccc(C(C)(C)C)cc4)cnc3cn2)cn1`, the IC90 is greater than 9.96 µM. Moreover, where the note is “PBLUC_HILL_SLOPE 3.33, PBLUC_R_SQUARED 0.519, read-out: LUCIFERASE INFECTION ASSAY - IC50”, the IC50 is 6.79 µM.

On to `CN(C)CCNc1nc2sc3c(c2c(=O)n1Cc1ccco1)CCCCC3`, for which the IC90 came to 8.43 µM. In addition, the IC50 (PBLUC_HILL_SLOPE 3.33, PBLUC_R_SQUARED 0.165, read-out: LUCIFERASE INFECTION ASSAY - IC50) is 4.36 µM.

In the case of `CCN1CCC(N(C)c2ccc(S(=O)(=O)N3CCCCCC3)cc2[N+](=O)[O-])CC1`, the IC90 was greater than 10 µM. The IC50 (PBLUC_HILL_SLOPE 3.35, PBLUC_R_SQUARED 0.446, read-out: LUCIFERASE INFECTION ASSAY - IC50) came out at 6.31 µM.

Take `COc1cccc(/C=C/C(=O)Oc2c(Cl)cc(Cl)c3ccc(C)nc23)c1OC`: the IC90 is 9.03 µM. In addition, for the setting “PBLUC_HILL_SLOPE 3.32, PBLUC_R_SQUARED 0.808, read-out: LUCIFERASE INFECTION ASSAY - IC50”, the IC50 worked out at 4.66 µM.

On to `Oc1ccc(Nc2nccc3[nH]c(-c4cccc(F)c4)cc23)cc1`, for which the IC90 was 8.12 µM. In addition, the IC50 (PBLUC_HILL_SLOPE 3.41, PBLUC_R_SQUARED 0.615, read-out: LUCIFERASE INFECTION ASSAY - IC50) was 4.27 µM.

Turning to `CS(=O)(=O)c1ccc(Nc2cc3[nH]c(-c4cccc(C(F)(F)F)c4)cc3cn2)cc1`, the IC90 is 9.79 µM. Besides, the IC50 (PBLUC_HILL_SLOPE 3.36, PBLUC_R_SQUARED 0.528, read-out: LUCIFERASE INFECTION ASSAY - IC50) stood at 5.09 µM.

In the case of `CNc1nn(C(=O)Nc2cccc(C(F)(F)F)c2)cc1[N+](=O)[O-]`, the concentration for an effect of 90% (IC90) is greater than 10 µM. Further, for the setting “PBLUC_HILL_SLOPE 3.4, PBLUC_R_SQUARED 0.508, read-out: LUCIFERASE INFECTION ASSAY - IC50”, the IC50 came to 5.63 µM.

As to `COc1cc(C(=O)OC(C)c2ccc(F)cc2)cc(OC)c1OC` (configuration not stated), the IC90 is greater than 10 µM. In addition, the IC50 (PBLUC_HILL_SLOPE 3.41, PBLUC_R_SQUARED 0.0259, read-out: LUCIFERASE INFECTION ASSAY - IC50) was determined as 9.26 µM.

On to `FC(F)(F)c1ccc(/C=N/Nc2ccc(C(F)(F)F)cc2)cc1`, for which the IC90 is greater than 9.93 µM. Also, the IC50 (PBLUC_HILL_SLOPE 3.36, PBLUC_R_SQUARED 0.386, read-out: LUCIFERASE INFECTION ASSAY - IC50) came out at 5.72 µM.

In the case of `COc1ccc(Cn2nc(C(=O)NC3CCCC3)c3c2CCN(Cc2ccc4c(c2)CCO4)C3)cc1`, the IC90 was greater than 6.78 µM. Further, the IC50 (PBLUC_HILL_SLOPE 3.3, PBLUC_R_SQUARED 0.745, read-out: LUCIFERASE INFECTION ASSAY - IC50) was 3.79 µM.

In the case of `O=C(Nc1ccc(Cl)c(C(F)(F)F)c1)C(c1ccccc1)N1CC=C(c2ccccc2)CC1` (configuration not stated), the IC90 is greater than 10 µM. Also, the IC50 under setting [1] was determined as 7.2 µM.

On to `CN1CCN(c2ccc(-c3cn4c(-c5ccccc5)cnc4cn3)cn2)CC1`, for which the IC90 worked out at 7.71 µM. The IC50 (PBLUC_HILL_SLOPE 3.35, PBLUC_R_SQUARED 0.57, read-out: LUCIFERASE INFECTION ASSAY - IC50) came out at 4 µM.

Turning to `CCCCN(CC(=O)N1CCCC(c2nc3ccccc3s2)C1)Cc1nc(=O)c2ccccc2[nH]1` (configuration not stated), the IC90 is greater than 10 µM. The IC50 (PBLUC_HILL_SLOPE 3.32, PBLUC_R_SQUARED 0.747, read-out: LUCIFERASE INFECTION ASSAY - IC50) stood at 6.35 µM.

As to `O=S(=O)(NCc1cc(Cl)cc(Cl)c1)c1cc(C(F)(F)F)cc(C(F)(F)F)c1`, the IC90 is greater than 7.3 µM. Moreover, the 50% inhibitory concentration (IC50) (PBLUC_HILL_SLOPE 3.39, PBLUC_R_SQUARED 0.218, read-out: LUCIFERASE INFECTION ASSAY - IC50) was 6.75 µM.

Take `COc1cccc(NC(=O)Nc2ccc(N3CCN(c4ncccc4C(F)(F)F)CC3)nc2)c1`: the IC90 was greater than 6.98 µM. Besides, the IC50 (PBLUC_HILL_SLOPE 3.4, PBLUC_R_SQUARED 0.647, read-out: LUCIFERASE INFECTION ASSAY - IC50) amounted to 5.69 µM.

In the case of `Cc1cc(-c2nc(=O)c3ccccc3[nH]2)c(C)n1CC(C)C`, the IC90 is 4.1 µM. Moreover, for the setting “PBLUC_HILL_SLOPE 3.39, PBLUC_R_SQUARED 0.354, read-out: LUCIFERASE INFECTION ASSAY - IC50”, the IC50 came to 2.15 µM.

On to `COc1ccc(NC(C)=O)cc1Nc1ncnc2scc(-c3ccccc3)c12`, for which the IC90 is greater than 10 µM. Besides, the IC50 (PBLUC_HILL_SLOPE 3.37, PBLUC_R_SQUARED 0.17, read-out: LUCIFERASE INFECTION ASSAY - IC50) is 9.19 µM.

As to `N#Cc1ccccc1COc1ccccc1-c1ccccc1`, the IC90 was greater than 10 µM. The IC50 (PBLUC_HILL_SLOPE 3.31, PBLUC_R_SQUARED 0.0977, read-out: LUCIFERASE INFECTION ASSAY - IC50) stood at 7.89 µM.

Regarding `COCCn1c(C)cc(C(=O)CN2C(=O)NC(C)(c3ccc(C(C)(C)C)cc3)C2=O)c1C` (configuration not stated), the concentration for an effect of 90% (IC90) was greater than 10 µM. For the same compound, the IC50 (PBLUC_HILL_SLOPE 3.36, PBLUC_R_SQUARED 0.275, read-out: LUCIFERASE INFECTION ASSAY - IC50) came out at 6.15 µM.

For `Cc1nc(Oc2ccc3ccc(=O)oc3c2)c2c3c(sc2n1)CCCCC3`, the concentration for an effect of 90% (IC90) was greater than 10 µM. For the same compound, the IC50 (PBLUC_HILL_SLOPE 3.34, 13.2, PBLUC_R_SQUARED 0.778, 0.263, read-out: LUCIFERASE INFECTION ASSAY - IC50) was determined as 7.83 µM.
